According to patent publication EP0349354A1, “Peptides PF10 to PF19 from a retro virus HIV, method for the synthesis of these peptides and their use, particularly in diagnostics” (INSTITUT PASTEUR, priority 1988, dated 1990):

System: anticorps anti-nef
Assay: ELISA for detection of anti-nef antibodies on coated peptides or nef
Format: binding, humain
Settings: for nombre de sérums anti-nef positifs ayant réagi: out of 31 anti-nef positive sera; for intensité de l'immunoréactivité (OD), Serum 1: Serum 1, anti-nef positive; for intensité de l'immunoréactivité (OD), Serum 1 / intensité de l'immunoréactivité (OD), Serum 2 / intensité de l'immunoréactivité (OD), Serum 3 / intensité de l'immunoréactivité (OD), Serum 4 / intensité de l'immunoréactivité (OD), Serum 5 / intensité de l'immunoréactivité (OD), Serum 6 / intensité de l'immunoréactivité (OD), Serum 7 / intensité de l'immunoréactivité (OD), Serum 8 / intensité de l'immunoréactivité (OD), Serum 9 / intensité de l'immunoréactivité (OD), Serum 10 / intensité de l'immunoréactivité (OD), Serum 11 / intensité de l'immunoréactivité (OD), Serum 12 / intensité de l'immunoréactivité (OD), Serum 13 / intensité de l'immunoréactivité (OD), Serum 14 / intensité de l'immunoréactivité (OD), Serum 15 / intensité de l'immunoréactivité (OD), Serum 16 / intensité de l'immunoréactivité (OD), Serum 17 / intensité de l'immunoréactivité (OD), Serum 18 / intensité de l'immunoréactivité (OD), Serum 19 / intensité de l'immunoréactivité (OD), Serum 20 / intensité de l'immunoréactivité (OD), Serum 21 / intensité de l'immunoréactivité (OD), Serum 22 / intensité de l'immunoréactivité (OD), Serum 23 / intensité de l'immunoréactivité (OD), Serum 24 / intensité de l'immunoréactivité (OD), Serum 25 / intensité de l'immunoréactivité (OD), Serum 26 / intensité de l'immunoréactivité (OD), Serum 27 / intensité de l'immunoréactivité (OD), Serum 28 / intensité de l'immunoréactivité (OD), Serum 29 / intensité de l'immunoréactivité (OD), Serum 30 / intensité de l'immunoréactivité (OD), Serum 31 / intensité de l'immunoréactivité (OD), Serum 32 / intensité de l'immunoréactivité (OD), Serum 33: 500 ng coated per well; for intensité de l'immunoréactivité (OD), Serum 2: Serum 2, anti-nef positive; for intensité de l'immunoréactivité (OD), Serum 3: Serum 3, anti-nef positive; for intensité de l'immunoréactivité (OD), Serum 4: Serum 4, anti-nef positive; for intensité de l'immunoréactivité (OD), Serum 5: Serum 5, anti-nef positive; for intensité de l'immunoréactivité (OD), Serum 6: Serum 6, anti-nef positive; for intensité de l'immunoréactivité (OD), Serum 7: Serum 7, anti-nef positive; for intensité de l'immunoréactivité (OD), Serum 8: Serum 8, anti-nef positive; for intensité de l'immunoréactivité (OD), Serum 9: Serum 9, anti-nef positive; for intensité de l'immunoréactivité (OD), Serum 10: Serum 10, anti-nef positive; for intensité de l'immunoréactivité (OD), Serum 11: Serum 11, anti-nef positive; for intensité de l'immunoréactivité (OD), Serum 12: Serum 12, anti-nef positive; for intensité de l'immunoréactivité (OD), Serum 13: Serum 13, anti-nef positive; for intensité de l'immunoréactivité (OD), Serum 14: Serum 14, anti-nef positive; for intensité de l'immunoréactivité (OD), Serum 15: Serum 15, anti-nef positive; for intensité de l'immunoréactivité (OD), Serum 16: Serum 16, anti-nef positive; for intensité de l'immunoréactivité (OD), Serum 17: Serum 17, anti-nef positive; for intensité de l'immunoréactivité (OD), Serum 18: Serum 18, anti-nef positive; for intensité de l'immunoréactivité (OD), Serum 19: Serum 19, anti-nef positive; for intensité de l'immunoréactivité (OD), Serum 20: Serum 20, anti-nef positive; for intensité de l'immunoréactivité (OD), Serum 21: Serum 21, anti-nef positive; for intensité de l'immunoréactivité (OD), Serum 22: Serum 22, anti-nef positive; for intensité de l'immunoréactivité (OD), Serum 23: Serum 23, anti-nef positive; for intensité de l'immunoréactivité (OD), Serum 24: Serum 24, anti-nef positive; for intensité de l'immunoréactivité (OD), Serum 25: Serum 25, anti-nef positive; for intensité de l'immunoréactivité (OD), Serum 26: Serum 26, anti-nef positive; for intensité de l'immunoréactivité (OD), Serum 27: Serum 27, anti-nef positive; for intensité de l'immunoréactivité (OD), Serum 28: Serum 28, anti-nef positive; for intensité de l'immunoréactivité (OD), Serum 29: Serum 29, anti-nef positive; for intensité de l'immunoréactivité (OD), Serum 30: Serum 30, anti-nef positive; for intensité de l'immunoréactivité (OD), Serum 31: Serum 31, anti-nef positive; for intensité de l'immunoréactivité (OD), Serum 32: Serum 32, anti-nef negative control serum; for intensité de l'immunoréactivité (OD), Serum 33: Serum 33, anti-nef negative control serum
Experimental: Des plaques de microtitration à 96 puits ont été recouvertes une nuit avec 500 ng de protéine nef bactérienne, à 37°C ou avec 500 ng de peptides synthétiques par puits dans 50µl de PBS à pH 7,4. Après saturation avec 400 µl de PBS pH 7,4, contenant 5% de caséine, durant 1 heure à 37°C et lavage avec PBS à pH 7,4, 0,5% de BSA, 0,01% tween, 50 µl de sérums à différentes dilutions ont été ajoutés pendant 2 heures à 37°C. Après le rinçage, 50µl de complexes d'IgG de souris anti-humaine-(H + L)-peroxydase 1:1000 ont été incubés pendant 1 heure à 37°C. Après un nouveau rinçage, 100µl de OPD ont été ajoutés pendant 30mn à température ambiante dans l'obscurité. La réaction de l'enzyme a été arrêtée par addition de 50µl d'acide sulfurique 4N et la densité optique des plaques a été lue à 492 nm/620 nm. Les plaques recouvertes avec la caséine ont été utilisées comme contrôle négatif.
En vue d'étudier la possibilité d'utiliser des peptides synthétiques en tant qu'antigènes pour la détection d'anticorps anti-nef chez des patients infectés par HIV, 8 peptides synthétiques couvrant la totalité de la séquence de la protéine nef de HIV-1 (figure 4) ont été utilisés dans un test ELISA avec 31 sérums anti-nef positifs et 2 sérums anti-nef négatifs utilisés comme contrôle. Les recombinants nef ont été utilisés comme contrôle positif dans les tests ELISA et la caséine a été utilisée comme contrôle négatif. Les résultats de ces expériences sont donnés dans le tableau 4 qui illustre l'essai suivant: Essai ELISA sur 31 sérums anti-nef-positifs et 2 sérums anti-nef- négatifs, soit pré-recouverts avec des peptides synthétiques (PF 11 à PF 18), soit en utilisant nef, la caséine ou un mélange de peptides PF 12 et PF 17. Les sérums ont été sélectionnés au hasard parmi des sérums anti-nef positifs et anti-nefs négatifs testés par la méthode RIA en utilisant ¹²⁵I nef. L'intensité de l'immunoradioactivité est notée "-" pour une densité optique (OD) inférieure à 0,2; "+" pour OD = 0,2 à 0,4; "++" pour OD = 0,4 à 0,8 et "+++" pour OD = 0,8 à 2,0.

| Sequence | nombre de sérums anti-nef positifs ayant réagi (ELISA) | intensité de l'immunoréactivité (OD), Serum 1 | intensité de l'immunoréactivité (OD), Serum 2 | intensité de l'immunoréactivité (OD), Serum 3 | intensité de l'immunoréactivité (OD), Serum 4 | intensité de l'immunoréactivité (OD), Serum 5 | intensité de l'immunoréactivité (OD), Serum 6 | intensité de l'immunoréactivité (OD), Serum 7 | intensité de l'immunoréactivité (OD), Serum 8 | intensité de l'immunoréactivité (OD), Serum 9 | intensité de l'immunoréactivité (OD), Serum 10 | intensité de l'immunoréactivité (OD), Serum 11 | intensité de l'immunoréactivité (OD), Serum 12 | intensité de l'immunoréactivité (OD), Serum 13 | intensité de l'immunoréactivité (OD), Serum 14 | intensité de l'immunoréactivité (OD), Serum 15 | intensité de l'immunoréactivité (OD), Serum 16 | intensité de l'immunoréactivité (OD), Serum 17 | intensité de l'immunoréactivité (OD), Serum 18 | intensité de l'immunoréactivité (OD), Serum 19 | other results |
| --- | --- | --- | --- | --- | --- | --- | --- | --- | --- | --- | --- | --- | --- | --- | --- | --- | --- | --- | --- | --- | --- |
| XCKGGLEGLIHSQRRQDILDLWIYHTQGYFPDZ [PF18] | 10 | - (pour une densité optique (OD) inférieure à 0,2) | - (pour une densité optique (OD) inférieure à 0,2) | - (pour une densité optique (OD) inférieure à 0,2) | - (pour une densité optique (OD) inférieure à 0,2) | + (pour OD = 0,2 à 0,4) | + (pour OD = 0,2 à 0,4) | - (pour une densité optique (OD) inférieure à 0,2) | - (pour une densité optique (OD) inférieure à 0,2) | - (pour une densité optique (OD) inférieure à 0,2) | - (pour une densité optique (OD) inférieure à 0,2) | - (pour une densité optique (OD) inférieure à 0,2) | - (pour une densité optique (OD) inférieure à 0,2) | - (pour une densité optique (OD) inférieure à 0,2) | - (pour une densité optique (OD) inférieure à 0,2) | - (pour une densité optique (OD) inférieure à 0,2) | - (pour une densité optique (OD) inférieure à 0,2) | - (pour une densité optique (OD) inférieure à 0,2) | ++ (pour OD = 0,4 à 0,8) | + (pour OD = 0,2 à 0,4) | part des sérums anti-nef positifs avec immunoréactivité significative (ELISA, 31 anti-nef positive sera): 1/3; intensité de l'immunoréactivité (OD), Serum 20: + (pour OD = 0,2 à 0,4); intensité de l'immunoréactivité (OD), Serum 21: +++ (pour OD = 0,8 à 2,0); intensité de l'immunoréactivité (OD), Serum 22: +++ (pour OD = 0,8 à 2,0); intensité de l'immunoréactivité (OD), Serum 23: - (pour une densité optique (OD) inférieure à 0,2); intensité de l'immunoréactivité (OD), Serum 24: ++ (pour OD = 0,4 à 0,8); intensité de l'immunoréactivité (OD), Serum 25: + (pour OD = 0,2 à 0,4); intensité de l'immunoréactivité (OD), Serum 26: - (pour une densité optique (OD) inférieure à 0,2); intensité de l'immunoréactivité (OD), Serum 27: - (pour une densité optique (OD) inférieure à 0,2); intensité de l'immunoréactivité (OD), Serum 28: - (pour une densité optique (OD) inférieure à 0,2); intensité de l'immunoréactivité (OD), Serum 29: - (pour une densité optique (OD) inférieure à 0,2); intensité de l'immunoréactivité (OD), Serum 30: +++ (pour OD = 0,8 à 2,0); intensité de l'immunoréactivité (OD), Serum 31: - (pour une densité optique (OD) inférieure à 0,2); intensité de l'immunoréactivité (OD), Serum 32: - (pour une densité optique (OD) inférieure à 0,2); intensité de l'immunoréactivité (OD), Serum 33: - (pour une densité optique (OD) inférieure à 0,2) |
| XCVGFPVTPQVPLRPMTYKAAVDLSHFLKEKGGLEGLIHSQRRQDILZ [PF14] | 3 | - (pour une densité optique (OD) inférieure à 0,2) | - (pour une densité optique (OD) inférieure à 0,2) | +++ (pour OD = 0,8 à 2,0) | - (pour une densité optique (OD) inférieure à 0,2) | - (pour une densité optique (OD) inférieure à 0,2) | - (pour une densité optique (OD) inférieure à 0,2) | - (pour une densité optique (OD) inférieure à 0,2) | - (pour une densité optique (OD) inférieure à 0,2) | - (pour une densité optique (OD) inférieure à 0,2) | - (pour une densité optique (OD) inférieure à 0,2) | - (pour une densité optique (OD) inférieure à 0,2) | - (pour une densité optique (OD) inférieure à 0,2) | - (pour une densité optique (OD) inférieure à 0,2) | ++ (pour OD = 0,4 à 0,8) | - (pour une densité optique (OD) inférieure à 0,2) | - (pour une densité optique (OD) inférieure à 0,2) | - (pour une densité optique (OD) inférieure à 0,2) | - (pour une densité optique (OD) inférieure à 0,2) | - (pour une densité optique (OD) inférieure à 0,2) | intensité de l'immunoréactivité (OD), Serum 20: - (pour une densité optique (OD) inférieure à 0,2); intensité de l'immunoréactivité (OD), Serum 21: ++ (pour OD = 0,4 à 0,8); intensité de l'immunoréactivité (OD), Serum 22: - (pour une densité optique (OD) inférieure à 0,2); intensité de l'immunoréactivité (OD), Serum 23: - (pour une densité optique (OD) inférieure à 0,2); intensité de l'immunoréactivité (OD), Serum 24: - (pour une densité optique (OD) inférieure à 0,2); intensité de l'immunoréactivité (OD), Serum 25: - (pour une densité optique (OD) inférieure à 0,2); intensité de l'immunoréactivité (OD), Serum 26: - (pour une densité optique (OD) inférieure à 0,2); intensité de l'immunoréactivité (OD), Serum 27: - (pour une densité optique (OD) inférieure à 0,2); intensité de l'immunoréactivité (OD), Serum 28: - (pour une densité optique (OD) inférieure à 0,2); intensité de l'immunoréactivité (OD), Serum 29: - (pour une densité optique (OD) inférieure à 0,2); intensité de l'immunoréactivité (OD), Serum 30: - (pour une densité optique (OD) inférieure à 0,2); intensité de l'immunoréactivité (OD), Serum 31: - (pour une densité optique (OD) inférieure à 0,2); intensité de l'immunoréactivité (OD), Serum 32: - (pour une densité optique (OD) inférieure à 0,2); intensité de l'immunoréactivité (OD), Serum 33: - (pour une densité optique (OD) inférieure à 0,2) |
